Results: patent US20230045421A1 (priority 2018, published 2023)
Read-outs that look alike come from different tables or passages of the source.

System: HBV rcDNA
Assay: HepDE19 assay with bDNA quantitation of HBV rcDNA
Format: cell-based, hepatitis B virus
How it was run: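 HepDE19 cells (HepG2-derived, Tet-regulated HBV replication) were deprived of tetracycline and then exposed to compounds for 7 days at 37 °C in 0.5% DMSO, 8-point titration from 25 μM. rcDNA was quantified by bDNA and EC50/EC90 came from 4-parameter fits. CC50 was measured by CellTiter-Glo ATP content on replicate plates after 4 days.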

[1] = Hepatitis B virus, HepDE19, HepDE19 assay, inhibition of formation of rcDNA, read-out: DE-19bDNA EC50
[2] = HepDE19 assay, inhibition of formation of rcDNA, read-out: DE-19bDNA EC50

Row | SMILES | EC50 [1] [µM] | EC50 [2] [µM] | also measured
1 | CC(c1c[nH]c(=O)c2c(F)c(F)ccc12)N(C)C(=O)Nc1ccc(Cl)cc1 (single isomer, unassigned) [Compound 445, 3-(4-Chlorophenyl)-1-(1-(7,8-difluoro-1-oxo-1,2-dihydroisoquinolin-4-yl)ethyl)-1-methylurea] | – | – | EC50 (read-out: DE-19bDNA EC50, HepDE19 assay, inhibition of formation of relaxed circular DNA (rcDNA), bDNA quantitation): 0.22 µM
2 | CCN(C(=O)Nc1ccc(F)c(Cl)c1)C(c1cnc(OC)c2ccccc12)C(F)(F)F (single isomer, unassigned) [Compound 75, 3-(3-Chloro-4-fluorophenyl)-1-ethyl-1-(2,2,2-trifluoro-1-(1-methoxyisoquinolin-4-yl)ethyl)urea] | 4.5 | – | –
3 | CC(c1cnc(-n2ccnn2)c2ccccc12)N(C)C(=O)Nc1ccc(F)c(Cl)c1 (single isomer, unassigned) [Compound 425, 1-(1-(1-(1H-1,2,3-Triazol-1-yl)isoquinolin-4-yl)ethyl)-3-(3-chloro-4-fluorophenyl)-1-methylurea] | – | – | EC50 (HepDE19 assay, inhibition of formation of relaxed circular DNA (rcDNA), bDNA quantitation, read-out: DE-19bDNA EC50): 0.09 µM
4 | CC(c1c[nH]c(=O)c2ccccc12)N(C[C@@H](C)O)C(=O)Nc1ccc(F)c(Cl)c1 (single isomer, unassigned) [Compound 216] | – | 0.09 | –
5 | COc1ccc2c(C(C)N(C)C(=O)Nc3ccc(F)c(Cl)c3)c[nH]c(=O)c2c1 (racemic) [Compound 173, 3-(3-Chloro-4-fluorophenyl)-1-(1-(7-methoxy-1-oxo-1,2-dihydroisoquinolin-4-yl)ethyl)-1-methylurea] | 0.38 | – | –
6 | [2H]C([2H])([2H])N(C(=O)Nc1ccc(F)c(Cl)c1)C(C)c1c[nH]c(=O)c2c(F)c(F)ccc12 (single isomer, unassigned) [Compound 473, 3-(3-Chloro-4-fluorophenyl)-1-(1-(7,8-difluoro-1-oxo-1,2-dihydroisoquinolin-4-yl)ethyl)-1-(methyl-d3)urea] | – | – | EC50 (Hepatitis B virus, HepDE19, read-out: DE-19bDNA EC50 (μM), HepDE19 assay, inhibition of formation of relaxed circular DNA (rcDNA), bDNA quantitation): 0.01 µM
7 | CC(c1cnc(NCCO)c2ccccc12)N(C)C(=O)Nc1ccc(F)c(Cl)c1 (single isomer, unassigned) [Compound 243, 3-(3-Chloro-4-fluorophenyl)-1-(1-(1-((2-hydroxyethyl)amino)isoquinolin-4-yl)ethyl)-1-methylurea] | – | 9.9 | –
8 | COCCN(C(=O)Nc1ccc(F)c(Cl)c1)C(C)c1cnc(OC)c2ccccc12 (single isomer, unassigned) [Compound 73, 3-(3-Chloro-4-fluorophenyl)-1-(2-methoxyethyl)-1-(1-(1-methoxyisoquinolin-4-yl)ethyl)urea] | – | 0.78 | –
9 | O=C(Nc1ccc(F)c(Cl)c1)N(Cc1c[nH]c(=O)c2ccccc12)CC1CC1 [Compound 53, 3-(3-Chloro-4-fluorophenyl)-1-(cyclopropylmethyl)-1-((1-oxo-1,2-dihydroisoquinolin-4-yl)methyl)urea] | – | – | EC50 (Hepatitis B virus, HepDE19, read-out: DE-19bDNA EC50 (μM), HepDE19 assay, inhibition of formation of rcDNA): 0.16 µM
10 | COc1ncc(CN(C(=O)Nc2ccc(F)c(Cl)c2)C2CC2)c2ccccc12 [Compound 34, 3-(3-Chloro-4-fluorophenyl)-1-cyclopropyl-1-((1-methoxyisoquinolin-4-yl)methyl)urea] | 3.7 | – | –
11 | CC(c1cnc(NCCN)c2ccccc12)N(C)C(=O)Nc1ccc(F)c(Cl)c1 (racemic) [Compound 244, 1-(1-(1-((2-aminoethyl)amino)isoquinolin-4-yl)ethyl)-3-(3-chloro-4-fluorophenyl)-1-methylurea] | 2.7 | – | –
12 | CCN(C(=O)Nc1ccc(F)c(Cl)c1)C(c1cnc(OC)c2ccccc12)C1CC1 (single isomer, unassigned) [Compound 58, 3-(3-Chloro-4-fluorophenyl)-1-(cyclopropyl(1-methoxyisoquinolin-4-yl)methyl)-1-ethylurea] | – | 3.5 | –
13 | CN(Cc1cnc(OCc2ccccn2)c2ccccc12)C(=O)Nc1ccc(F)c(Cl)c1 [Compound 88, 3-(3-Chloro-4-fluorophenyl)-1-methyl-1-((1-(pyridin-2-ylmethoxy)isoquinolin-4-yl)methyl)urea] | 1.1 | – | –
14 | CC(c1c[nH]c(=O)c2c(Cl)cccc12)N(C)C(=O)Nc1ccc(F)c(Cl)c1 (single isomer, unassigned) [Compound 167, 1-(1-(8-Chloro-1-oxo-1,2-dihydroisoquinolin-4-yl)ethyl)-3-(3-chloro-4-fluorophenyl)-1-methylurea] | – | 2.4 | –
